Reference: ChEMBL document CHEMBL4229562, “Introduction of a Methyl Group Curbs Metabolism of Pyrido[3,4- d]pyrimidine Monopolar Spindle 1 (MPS1) Inhibitors and Enables the Discovery of the Phase 1 Clinical Candidate N2-(2-Ethoxy-4-(4-methyl-4 H-1,2,4-triazol-3-yl)phenyl)-6-methyl- N8-neopentylpyrido[3,4- d]pyrimidine-2,8-diamine …” (J Med Chem, 2018)
≈ marks a conversion by molar mass, not a printed value.

Columns and labels:
[1] = Lipophilicity, log P of the compound; format: physicochemical; details: octanol/water
[2] = molecular target: T1, Dual specificity protein kinase TTK (Homo sapiens, UniProt P33981)
T1 sequence (P33981 whole entry): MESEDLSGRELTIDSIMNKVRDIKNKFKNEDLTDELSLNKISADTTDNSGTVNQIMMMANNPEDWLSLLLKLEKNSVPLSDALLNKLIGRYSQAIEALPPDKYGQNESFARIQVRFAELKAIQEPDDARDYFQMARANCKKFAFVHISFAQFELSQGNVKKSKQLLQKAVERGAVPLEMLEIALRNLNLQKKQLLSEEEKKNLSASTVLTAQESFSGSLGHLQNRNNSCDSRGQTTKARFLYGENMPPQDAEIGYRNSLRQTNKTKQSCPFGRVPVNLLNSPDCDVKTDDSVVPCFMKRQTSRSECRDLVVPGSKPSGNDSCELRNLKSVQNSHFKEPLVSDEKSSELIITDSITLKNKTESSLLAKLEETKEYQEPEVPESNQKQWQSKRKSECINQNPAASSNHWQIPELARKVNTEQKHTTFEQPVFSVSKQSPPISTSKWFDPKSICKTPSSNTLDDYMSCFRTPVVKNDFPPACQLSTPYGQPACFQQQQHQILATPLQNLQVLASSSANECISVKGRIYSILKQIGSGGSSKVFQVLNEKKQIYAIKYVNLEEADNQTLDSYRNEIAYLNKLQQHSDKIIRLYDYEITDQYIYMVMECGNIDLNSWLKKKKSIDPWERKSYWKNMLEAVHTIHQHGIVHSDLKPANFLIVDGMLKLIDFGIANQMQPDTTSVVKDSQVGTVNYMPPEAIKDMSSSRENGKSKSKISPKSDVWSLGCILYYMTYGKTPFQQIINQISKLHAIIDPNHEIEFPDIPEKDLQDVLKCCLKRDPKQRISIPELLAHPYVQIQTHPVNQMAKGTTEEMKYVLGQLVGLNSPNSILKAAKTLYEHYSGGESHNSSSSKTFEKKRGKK
Description: Inhibition of MPS1 autophosphorylation at Thr33/Ser37 in human HCT116 cells after 2 hrs by MSD assay

[3] = molecular target: T1, Dual specificity protein kinase TTK; remark: listed apart in the source
Description: Inhibition of full length human N-terminal 6xHis-tagged MPS1 expressed in baculovirus expression system using 5FAM-H236 peptide as substrate after 60 to 90 mins by caliper assay

CDK2/Cyclin A2 = CDK2/Cyclin A2 (Homo sapiens, UniProt P24941)
[4] = Intrinsic clearance in CD1 mouse liver microsomes assessed per mg protein at 1 uM preincubated for 10 mins followed NADPH/UDP-glucuronic acid addition and measured after 30 mins by LC-MS/MS analysis; format: ADME, microsome; details: 0.5 h
[5] = Intrinsic clearance in human liver microsomes assessed per mg protein at 1 uM preincubated for 10 mins followed NADPH/UDP-glucuronic acid addition and measured after 30 mins by LC-MS/MS analysis; format: ADME, microsome; details: 0.5 h
[6] = Cmax in mouse at 5 mg/kg, po by ESI-LCMS/MS analysis; format: ADME, organism-based; design: dose 5 mg/kg, route oral; details: in vivo
[7] = Clearance in rat at 5 mg/kg, iv by ESI-LCMS/MS analysis; format: ADME, organism-based; details: in vivo
[8] = Volume of distribution at steady state in mouse at 5 mg/kg, iv by ESI-LCMS/MS analysis; format: ADME, organism-based; details: in vivo, read-out: Vdss
Mus musculus [9] = assay: Oral bioavailability in mouse at 5 mg/kg by ESI-LCMS/MS analysis; format: ADME, organism-based; details: in vivo
[10] = Clearance in mouse at 5 mg/kg, iv by ESI-LCMS/MS analysis; format: ADME, organism-based; details: in vivo
[11] = AUClast in rat at 5 mg/kg, po measured after 6 hrs by ESI-LCMS/MS analysis; format: ADME, organism-based; details: in vivo
[12] = Cmax in rat at 5 mg/kg, po by ESI-LCMS/MS analysis; format: ADME, organism-based; design: dose 5 mg/kg, route oral; details: in vivo
[13] = Plasma concentration in doxycycline-inducible human DLD-1 cell xenografted mouse model at 25 mg/kg, po administered as single dose and measured after 24 hrs post dose by LC/MS analysis; format: ADME, organism-based
Rattus norvegicus [14] = assay: Oral bioavailability in rat at 5 mg/kg by ESI-LCMS/MS analysis; format: ADME, organism-based; details: in vivo
[15] = Volume of distribution at steady state in rat at 5 mg/kg, iv by ESI-LCMS/MS analysis; format: ADME, organism-based; details: in vivo, read-out: Vdss
Rattus norvegicus [16] = assay: Half life in rat at 5 mg/kg, iv by ESI-LCMS/MS analysis; format: ADME, organism-based; details: in vivo
Mus musculus [17] = assay: Half life in mouse at 5 mg/kg, iv by ESI-LCMS/MS analysis; format: ADME, organism-based; details: in vivo
[18] = Solubility of the compound in PBS buffer at pH 7.4 by HPLC analysis; format: physicochemical
[19] = Protein binding in mouse plasma; format: ADME, cell-free
[20] = AUClast in mouse at 5 mg/kg, po measured after 6 hrs by ESI-LCMS/MS analysis; format: ADME, organism-based; details: in vivo
[21] = AUClast in rat at 5 mg/kg, po measured after 24 hrs by ESI-LCMS/MS analysis; format: ADME, organism-based; details: in vivo
Rattus norvegicus [22] = assay: Half life in rat at 1 mg/kg, iv by ESI-LCMS/MS analysis; format: ADME, organism-based; details: in vivo
[23] = Volume of distribution at steady state in rat at 1 mg/kg, iv by ESI-LCMS/MS analysis; format: ADME, organism-based; details: in vivo, read-out: Vdss

SMILES | logP [1] | IC50 [2] | IC50 [3] | Ki [3] | IC50 (CDK2/Cyclin A2) | Ki (CDK2/Cyclin A2) | CLH [4] | CLH [5] | solubility [18] | other results
COc1cc(-c2cnn(C)c2)ccc1Nc1ncc2ccnc(NCC(C)(C)C)c2n1 | 4.27 |  |  |  |  |  |  |  |  | 
COc1cc(-c2cnn(C)c2C)ccc1Nc1ncc2ccnc(NCC(C)(C)C)c2n1 | 4.42 | 95 nM | 79 nM | 0.78 nM | 3000 nM | 1500 nM |  |  |  | 
COc1cc(-c2cnc(C)n2C)ccc1Nc1ncc2ccnc(NCC(C)(C)C)c2n1 | 4.27 | 44 nM | 8.5 nM | 0.084 nM | 86 nM | 43 nM | 92.5 µL/min/mg |  |  | 
COc1cc(-c2cnc(C)n2C)ccc1Nc1ncc2cc(C)nc(NCC(C)(C)C)c2n1 | 4.55 | 170 nM | 9.5 nM | 0.094 nM | 1400 nM | 720 nM | 34.5 µL/min/mg | 28.2 µL/min/mg |  | 
COc1cc(-c2cn(C)nc2C)ccc1Nc1ncc2ccnc(NCC(C)(C)C)c2n1 | 4.56 | 230 nM | 2500 nM | 24 nM | 2800 nM | 1400 nM |  |  |  | 
CCOc1cc(-c2nncn2C)ccc1Nc1ncc2cc(C)nc(N3CC4(CCOCC4)C3)c2n1 | 3.08 | 37 nM | 11 nM | 0.11 nM | 2500 nM | 1300 nM | 32.9 µL/min/mg | 9.4 µL/min/mg | 56.2 µM (≈ 27.3 µg/mL) | Cmax [6]: 3080 nM; clearance [7]: 7.59 mL/min/kg; Vd [8]: 1.21 L/kg; F (Mus musculus [9]): 63%; clearance [10]: 22.6 mL/min/kg; AUC(0-t) at 6 h [11]: 5.16 µM·h; Cmax [12]: 1180 nM; concentration at 24 h [13]: < 10 nM; F (Rattus norvegicus [14]): 22%; Vd [15]: 0.89 L/kg; t1/2 (Rattus norvegicus [16]): 1.5 h; t1/2 (Mus musculus [17]): 0.66 h; PPB [19]: 98.09%; AUC(0-t) at 6 h [20]: 4.78 µM·h
CCOc1cc(-c2nnc(CCN(C)C)n2C)ccc1Nc1ncc2cc(C)nc(NCC(C)(C)C)c2n1 | 4.75 | 230 nM | 12 nM | 0.12 nM | 360 nM | 180 nM | 27.7 µL/min/mg | 23 µL/min/mg | 77.6 µM (≈ 40.2 µg/mL) | 
CCOc1cc(-c2nncn2C)ccc1Nc1ncc2cc(C)nc(N3CCC3(C)C)c2n1 | 3.58 | 3800 nM | 400 nM | 4 nM | 26000 nM | 13000 nM |  |  |  | 
CCOc1cc(-c2nncn2C)ccc1Nc1ncc2cc(C)nc(N3CC(C)(C)C3)c2n1 | 3.85 | 37 nM | 8.9 nM | 0.088 nM | 1600 nM | 810 nM | 44.3 µL/min/mg | 25.2 µL/min/mg | 31.5 µM (≈ 14 µg/mL) | Cmax [6]: 2350 nM; clearance [7]: 7.35 mL/min/kg; Vd [8]: 2.09 L/kg; AUC(0-t) at 24 h [21]: 18.3 µM·h; F (Mus musculus [9]): 75%; clearance [10]: 16.3 mL/min/kg; Cmax [12]: 1420 nM; F (Rattus norvegicus [14]): 72%; Vd [15]: 1.88 L/kg; t1/2 (Rattus norvegicus [16]): 3.03 h; t1/2 (Mus musculus [17]): 1.58 h; PPB [19]: 99.28%; AUC(0-t) at 6 h [20]: 8.11 µM·h
CCOc1cc(-c2nnc(C)n2C)ccc1Nc1ncc2cc(C)nc(NCC(C)(C)C)c2n1 | 4.49 | 33 nM | 12 nM | 0.12 nM | 940 nM | 470 nM | 32.9 µL/min/mg | 20.4 µL/min/mg | 1.8 µM (≈ 0.829 µg/mL) | 
CCOc1cc(-c2nncn2C)ccc1Nc1ncc2cc(C)nc(N3CCCC3)c2n1 | 3.58 | 370 nM | 83 nM | 0.82 nM | 1100 nM | 550 nM |  |  |  | 
CCOc1cc(-c2nncn2C)ccc1Nc1ncc2cc(C)nc(N3CC(C)(C#N)C3)c2n1 | 3.25 | 110 nM | 20 nM | 0.2 nM | 2700 nM | 1400 nM | 24.7 µL/min/mg | 5.6 µL/min/mg | 6.8 µM (≈ 3.1 µg/mL) | 
CCOc1cc(-c2nncn2C)ccc1Nc1ncc2cc(C)nc(N[C@@H](C)C(C)(C)C)c2n1 | 4.61 | 23 nM | 4.7 nM | 0.047 nM | 150 nM | 77 nM | 25.3 µL/min/mg | 15.2 µL/min/mg |  | Cmax [6]: 2920 nM; Vd [8]: 2.19 L/kg; F (Mus musculus [9]): 86%; clearance [10]: 8.4 mL/min/kg; t1/2 (Rattus norvegicus [22]): 4.52 h; Vd [23]: 1.88 L/kg; Cmax [12]: 1890 nM; F (Rattus norvegicus [14]): 92%; t1/2 (Mus musculus [17]): 3.47 h; PPB [19]: 99.91%; AUC(0-t) at 6 h [20]: 13.8 µM·h
CCOc1cc(-c2nnc3n2CCC3)ccc1Nc1ncc2cc(C)nc(NCC(C)(C)C)c2n1 | 4.75 | 250 nM | 38 nM | 0.38 nM | > 10000 nM | > 5000 nM | 36.4 µL/min/mg | 18.6 µL/min/mg |  | 
COc1cc(-c2nnc3n2CCC3)ccc1Nc1ncc2cc(C)nc(NCC(C)(C)C)c2n1 | 4.4 | 240 nM | 19 nM | 0.19 nM | 250 nM | 130 nM | 28.8 µL/min/mg | 28.8 µL/min/mg | 1.7 µM (≈ 0.78 µg/mL) | 
